Laboratory results as given in ChEMBL document CHEMBL1150879, “Synthesis of (+/-)-cassumunins A and B, new curcuminoid antioxidants having protective activity of the living cell against oxidative damage” (J Nat Prod, 1998).

What follows are compounds tested on Thymocyte (assay: Inhibition of H2O2-induced cell death of rat thymocyte assessed as cell viability).
Assay type: functional, cell-based

Row | Structure (SMILES) | IC50 [nM]
1 | COc1cc(/C=C/C(=O)CC(=O)/C=C/c2ccc(O)c(OC)c2)ccc1O [CURCUMIN] | 1020
2 | COc1cc(/C=C/C(=O)CC(=O)/C=C/c2cc(OC)c(O)c(C(C)/C=C/c3cc(OC)c(OC)cc3OC)c2)ccc1O (stereo not drawn) [CASSUMUNIN B] | 220
3 | COc1cc(/C=C/C(=O)CC(=O)/C=C/c2cc(OC)c(O)c(C(C)/C=C/c3ccc(OC)c(OC)c3)c2)ccc1O (stereo not drawn) [CASSUMUNIN A] | 170
